Key:
[1] = biological target: T1, recombinant human 5-HT5A receptor (Homo sapiens, UniProt P47898); assay: [3H]LSD radioligand binding assay; details: [3H]LSD (approximately 1 nM), membranes from HEK-EBNA cells transiently expressing 5-HT5A receptors; Ki from IC50 by Cheng-Prussoff equation
T1 construct: expressed in transfected cells; host or cells: HEK-EBNA (Human Embryonic Kidney-EBNA) cells, transient cDNA expression; membranes used
Protocol: A [^3H]LSD radioligand binding assay was used to determine the affinity of the compounds for the recombinant human 5-HT5A receptor, in membranes from transiently (cDNA) expressed 5-HT5A receptors in Human Embryonic Kidney-EBNA (HEK-EBNA) cells. Assay buffer consisted of Tris (50 mM) buffer containing 1 mM EGTA, 10 mM MgCl2 (pH 7.4) and 10 μM pargyline. The binding assay was carried out in 96-well-plates in the presence of [^3H]LSD (approximately 1 nM), approximately 2 μg/well of membrane protein, and 0.5 mg of Ysi-poly-1-lysine SPA beads in a final volume of 200 μl of buffer. Non-specific binding was defined using methiothepin 2 μM. Compounds were tested at 10 concentrations. All assays were conducted in duplicate and repeated at least two times. Assay plates were incubated for 120 min at room temperature before centrifugation. Bound ligand was determined using a Packard Topcount scintillation counter. IC50 values were calculated using a non-linear curve fitting program and Ki values calculated using the Cheng-Prussoff equation.

T1 sequence (P47898 whole entry): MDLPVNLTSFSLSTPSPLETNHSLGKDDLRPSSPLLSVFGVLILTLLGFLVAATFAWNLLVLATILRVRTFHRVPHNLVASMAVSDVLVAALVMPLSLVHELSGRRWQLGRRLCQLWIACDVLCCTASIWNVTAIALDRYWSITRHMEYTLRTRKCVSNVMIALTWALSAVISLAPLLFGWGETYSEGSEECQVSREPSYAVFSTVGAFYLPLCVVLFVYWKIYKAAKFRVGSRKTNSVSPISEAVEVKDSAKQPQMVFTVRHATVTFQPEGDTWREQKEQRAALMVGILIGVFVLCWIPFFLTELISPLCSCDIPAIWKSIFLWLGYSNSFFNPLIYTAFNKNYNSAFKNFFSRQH

Row | melting point | Ki [1] | Structure (SMILES)
1 | 226 °C |  | O=C(Cn1ccnc1)Nc1cccc2nc(N[C@@H]3CCc4ccccc43)ccc12 [Example 47, 2-Imidazol-1-yl-N-[2-((R)-indan-1-ylamino)-quinolin-5-yl]-acetamide]
2 | 234 °C | 9.1 nM | COc1cccc2c1C(Nc1ccc3c(NC(=O)Cc4ccc(Cl)cc4)cccc3n1)CC2 (racemic) [Example 57, rac-2-(4-Chloro-phenyl)-N-[2-(7-methoxy-indan-1-ylamino)-quinolin-5-yl]-acetamide]
3 | 188 °C | 29.1 nM | COc1cccc2c1C(Nc1ccc3c(NCCS(C)(=O)=O)cccc3n1)CO2 (racemic) [Example 40, N^5-(2-Methanesulfonyl-ethyl)-N^2-(RS)-(4-methoxy-2,3-dihydro-benzofuran-3-yl)-quinoline-2,5-diamine]
4 |  | 105 nM | c1ccc2c(c1)CC[C@H]2Nc1ccc2c(N3CCOCC3)cccc2n1 [Example 4, (R)-Indan-1-yl-(5-morpholin-4-yl-quinolin-2-yl)-amine]
5 | 221 °C | 28.7 nM | O=C(Cc1cc(F)cc(F)c1)Nc1cccc2nc(N[C@@H]3CCc4ccccc43)ccc12 [Example 59, 2-(3,5-Difluoro-phenyl)-N-[2-((R)-indan-1-ylamino)-quinolin-5-yl]-acetamide]
6 |  | 32.2 nM | O=S(=O)(Nc1cccc2nc(N[C@@H]3CCc4ccccc43)ccc12)C1CC1 [Example 17, Cyclopropanesulfonic acid[2-((R)-indan-1-ylamino)-quinolin-5-yl]-amide]
7 | 248 °C |  | COc1cccc2c1C(Nc1ccc3c(NC(=O)Cc4cc(F)cc(F)c4)cccc3n1)CC2 (racemic) [Example 56, rac-2-(3,5-Difluoro-phenyl)-N-[2-(7-methoxy-indan-1-ylamino)-quinolin-5-yl]-acetamide]
8 |  | 26 nM | c1ccc2c(c1)CC[C@H]2Nc1ccc2c(NC3CCOCC3)cccc2n1 [Example 3, N^2-(R)-Indan-1-yl-N^5-(tetrahydro-pyran-4-yl)-quinoline-2,5-diamine]
9 |  | 26.5 nM | C[S+]([O-])CCNc1cccc2nc(N[C@@H]3CCc4ccccc43)ccc12 (stereo partly drawn) [Example 6, N^2-(R)-Indan-1-yl-N^5-(2-methanesulfinyl-ethyl)-quinoline-2,5-diamine]
10 |  | 27.7 nM | c1ccc2c(c1)CC[C@H]2Nc1ccc2c(C3CC3)cccc2n1 [Example 44, (5-Cyclopropyl-quinolin-2-yl)-(R)-indan-1-yl-amine]
11 |  | 68 nM | O=C(Nc1cccc2nc(N[C@@H]3CCc4ccccc43)ccc12)C1CC1 [Example 22, Cyclopropanecarboxylic acid[2-((R)-indan-1-ylamino)-quinolin-5-yl]-amide]
12 | 192 °C |  | COc1ccc(CC(=O)Nc2cccc3nc(NC4CCc5cc(F)ccc54)ccc23)cc1 (racemic) [Example 53, rac-N-[2-(5-Fluoro-indan-1-ylamino)-quinolin-5-yl]-2-(4-methoxy-phenyl)-acetamide]
13 | 200.5 °C | 17.4 nM | N=C(NO)c1cccc2nc(N[C@@H]3CCc4ccccc43)ccc12 [Example 28, N-Hydroxy-2-((R)-indan-1-ylamino)-quinoline-5-carboxamidine]
14 | 203 °C |  | O=C(Cc1cc(F)cc(F)c1)Nc1cccc2nc(NC3CCc4cc(F)ccc43)ccc12 (racemic) [Example 50, rac-2-(3,5-Difluoro-phenyl)-N-[2-(5-fluoro-indan-1-ylamino)-quinolin-5-yl]-acetamide]
15 | 179 °C |  | O=C(CN1CCOCC1)Nc1cccc2nc(N[C@@H]3CCc4ccccc43)ccc12 [Example 33, N-[2-((R)-Indan-1-ylamino)-quinolin-5-yl]-2-morpholin-4-yl-acetamide]
16 |  | 24.7 nM | CS(=O)(=O)CCNc1cccc2nc(N[C@@H]3CCc4ccccc43)ccc12 [Example 7, N^2-(R)-Indan-1-yl-N^5-(2-methanesulfonyl-ethyl)-quinoline-2,5-diamine]
17 | 211 °C |  | O=C(CC1CCOCC1)Nc1cccc2nc(N[C@@H]3CCc4ccccc43)ccc12 [Example 35, N-[2-((R)-Indan-1-ylamino)-quinolin-5-yl]-2-(tetrahydro-pyran-4-yl)-acetamide]
18 |  | 25.2 nM | COc1cccc2c1C(Nc1ccc3c(NCCSC)cccc3n1)CO2 (racemic) [Example 39, rac-N^2-(4-Methoxy-2,3-dihydro-benzofuran-3-yl)-N^5-(2-methylsulfanyl-ethyl)-quinoline-2,5-diamine]
19 | 170 °C | 5.5 nM | O=C(Cc1ccc(Cl)cc1)Nc1cccc2nc(N[C@@H]3CCc4ccccc43)ccc12 [Example 60, 2-(4-Chloro-phenyl)-N-[2-((R)-indan-1-ylamino)-quinolin-5-yl]-acetamide]

Row | melting point | Ki [1] | Structure (SMILES)
20 | 187 °C | 17.6 nM | O=C(Cc1ccc(F)cc1)Nc1cccc2nc(NC3CCc4cc(F)ccc43)ccc12 (racemic) [Example 48, rac-N-[2-(5-Fluoro-indan-1-ylamino)-quinolin-5-yl]-2-(4-fluoro-phenyl)-acetamide]
21 | 151 °C | 5.8 nM | ON=C(c1cccc2nc(N[C@@H]3CCc4ccccc43)ccc12)C1CC1 [Example 31, Cyclopropyl-[2-((R)-indan-1-ylamino)-quinolin-5-yl]-methanone oxime]
22 | 175 °C |  | COc1ccc(CC(=O)Nc2cccc3nc(N[C@@H]4CCc5ccccc54)ccc23)cc1 [Example 52, N-[2-((R)-Indan-1-ylamino)-quinolin-5-yl]-2-(4-methoxy-phenyl)-acetamide]
23 | 195 °C | 11 nM | COc1cccc2c1C(Nc1ccc3c(NC(=O)Cc4ccc(F)cc4)cccc3n1)CC2 (racemic) [Example 54, rac-2-(4-Fluoro-phenyl)-N-[2-(7-methoxy-indan-1-ylamino)-quinolin-5-yl]-acetamide]
24 |  | 90.6 nM | COCCOc1cccc2nc(N[C@@H]3CCc4ccccc43)ccc12 [Example 24, (R)-Indan-1-yl-[5-(2-methoxy-ethoxy)-quinolin-2-yl]-amine]
25 |  | 219 nM | Nc1cccc2nc(NC3Cc4ccccc4C3)ccc12 (racemic) [Example 23, rac-N^2-Indan-2-yl-quinoline-2,5-diamine]
26 |  | 7.2 nM | Nc1cccc2nc(N[C@@H]3CCc4ccccc43)ccc12 [Example 16, (R)—N^2-Indan-1-yl-quinoline-2,5-diamine]
27 |  | 6.1 nM | COc1cccc2c1C(Nc1ccc3c(N)cccc3n1)CC2 (racemic) [Example 19, rac-N^2-(7-Methoxy-indan-1-yl)-quinoline-2,5-diamine]
28 |  | 12.5 nM | Nc1cccc2nc(NC3CCc4cc(F)ccc43)ccc12 (racemic) [Example 37, rac-N^2-[5-Fluoro-indan-1-yl]-quinoline-2,5-diamine]
29 | 207 °C | 11 nM | O=C(Cc1ccc(F)cc1)Nc1cccc2nc(N[C@@H]3CCc4ccccc43)ccc12 [Example 45, 2-(4-Fluoro-phenyl)-N-[2-((R)-indan-1-ylamino)-quinolin-5-yl]-acetamide]
30 | 194 °C |  | COc1cccc2c1C(Nc1ccc3c(NC(=O)Cc4cccs4)cccc3n1)CC2 (racemic) [Example 55, rac-N-[2-(7-Methoxy-indan-1-ylamino)-quinolin-5-yl]-2-thiophen-2-yl-acetamide]
31 | 184 °C |  | O=C(Cc1cccs1)Nc1cccc2nc(NC3CCc4cc(F)ccc43)ccc12 (racemic) [Example 49, rac-N-[2-(5-Fluoro-indan-1-ylamino)-quinolin-5-yl]-2-thiophen-2-yl-acetamide]
32 | 209 °C |  | COc1ccc(CC(=O)Nc2cccc3nc(NC4CCc5cccc(OC)c54)ccc23)cc1 (racemic) [Example 58, rac-N-[2-(7-Methoxy-indan-1-ylamino)-quinolin-5-yl]-2-(4-methoxy-phenyl)-acetamide]
33 | 153 °C |  | CN(C)CC(=O)Nc1cccc2nc(N[C@@H]3CCc4ccccc43)ccc12 [Example 32, 2-Dimethylamino-N-[2-((R)-indan-1-ylamino)-quinolin-5-yl]-acetamide]
34 | 221 °C | 9.4 nM | O=C(Cc1ccc(Cl)cc1)Nc1cccc2nc(NC3CCc4cc(F)ccc43)ccc12 (racemic) [Example 51, rac-2-(4-Chloro-phenyl)-N-[2-(5-fluoro-indan-1-ylamino)-quinolin-5-yl]-acetamide]
35 | 163.5 °C | 36.1 nM | O=C(Cc1cccs1)Nc1cccc2nc(N[C@@H]3CCc4ccccc43)ccc12 [Example 46, N-[2-((R)-Indan-1-ylamino)-quinolin-5-yl]-2-thiophen-2-yl-acetamide]
36 |  | 23.5 nM | CSCCNc1cccc2nc(N[C@@H]3CCc4ccccc43)ccc12 [Example 5, N^2-(R)-Indan-1-yl-N^5-(2-methylsulfanyl-ethyl)-quinoline-2,5-diamine]
37 |  | 2.3 nM | COc1cccc2c1C(Nc1ccc3c(NS(=O)(=O)N(C)C)cccc3n1)CC2 (racemic) [Example 20, rac-N′-{2-[(7-methoxy-indan-1-yl)amino]quinolin-5-yl}-N,N-dimethylsulfamide]

Row | Structure (SMILES) | melting point | Ki [1]
38 | CNc1cccc2nc(N[C@@H]3CCc4ccccc43)ccc12 [Example 1, N^2-(R)-Indan-1-yl-N^5-methyl-quinoline-2,5-diamine] |  | 22.5 nM
